Experimental data reported in patent US10149876B2, “Tripterygium wilfordii extracts to overcome chemotherapy resistance” (WESTERN UNIVERSITY OF HEALTH SCIENCES, priority 2012, dated 2018).
“And” between values parts separate entries of the source, which are not always exact repeats. Equal entries are not always repeated. Where two headings read alike, the source gives them in different places.

Tests used:
SkBr3-TxR cells = test: SRB cell viability assay, lapatinib-resistant SkBr3-TxR cells; format: cell-based, human; conditions: for viability at 0.001 µM / viability at 0.02 µM / viability at 0.067 µM / viability at 0.2 µM / viability at 0.67 µM / viability at 2 µM / viability at 6.7 µM / viability at 20 µM / IC50: Homo sapiens; for viability at 0.067 µM: Lapatinib 0.067 μM
Text: FIG. 13 summarizes the data of Tables 32-33 in a graphical format.
FIG. 14 summarizes the data of Tables 34 and 35 in a graphical format.

BT474-TxR cells = test: SRB cell viability assay, Herceptin-resistant BT474-TxR cells; format: cell-based, human; conditions: Homo sapiens, 72 h; for viability at 0.001 µM: Lapatinib 0.001 μM; for viability at 0.02 µM: Lapatinib 0.02 μM; for viability at 0.067 µM: Lapatinib 0.067 μM
Protocol: PC3-TxR cells were plated into sterile, F-bottom Cellstar® 96 well cell culture plates with lids (Cat #655180, Purchased from Greiner Bio-one, Monroe, N.C.) by placing into each well, 100 μl of medium containing 3000 cells in RPMI 1640 supplemented with 10% fetal bovine serum (Thermo Scientific, Logan, Utah) and a solution of penicillin (100 U/ml) and streptomycin (100 μg/ml) (Life Technologies Grand Island, N.Y.). The cells were at passage 52 at the time of plating. Triplicate wells were assigned to each experimental condition tested, and a 24 hour recovery period for the cells following the seeding of the wells was allowed. During the recovery period, the cells were incubated at 37° C. and 5% CO2.
The LGT-E was prepared by adding an appropriate amount of LGT-E powder to DMSO to form a 500 mg/ml stock solution. The stock solution was alternately vortexed and sonicated until the LGT-E powder went into solution. The stock solution was diluted in RPMI 1640 medium (Mediatech, Manassas, Va., or Life Technologies Grand Island, NY) to reach the desired concentrations of LGT-E (e.g., 12, 25, or 60 μg/ml).
Pretreatment of the cells with LGT-E was carried out by aspirating the media from the wells, followed by adding 50 μl of LGT-E solution containing concentrations of either 12 or 25 μg/ml of LGT-E solution and incubation of the cells for two hours under conditions of 37° C. and 5% CO2.
Media was aspirated from each well, and replaced with a 10% solution of cold trichloroacetic acid (TCA) (Cat #: T6399, purchased from Sigma-Aldrich), and incubated for one hour at 4° C. After the TCA incubation, the TCA solution was aspirated, and the cells were washed five times with tap water. After removing the last wash, the plates were left with lids off at room temperature until the surfaces were dry, which took one to two hours. Then 50 μl of a 0.4% solution of sul-forhodamine B (SRB) sodium salt (Cat #: S9012, purchased from Sigma-Aldrich) was added to each well and the plates were incubated at room temperature for 20 to 30 minutes. Afterwards, the wells were washed five times with a 1% acetic acid solution in 10 mM TRIS base (Cat#: 161-0719, purchased from Bio-Rad Laboratories, Hercules, Calif.). The plates were subsequently left to dry for several hours or overnight. SRB that remained in the dried wells was solubilized by adding 100 μl of SRB solubilization solution (10 mM TRIS base) to each well, and placing the plates either on a gently-moving shaker or letting the plates remain stationary at room temperature until the SRB dissolves, which takes about five to ten minutes. The amount of SRB in each well, which correlated directly to the number of living cells at fixation, was determined spectrophotometrically at an absorbance of 565 nm by a microplate reader.

[1] = no LGT-E pre-treatment (control to Table 28)
[2] = no LGT-E pre-treatment (control to Table 30)
[3] = pre-treated with 25 μg/ml LGT-E

SMILES: CS(=O)(=O)CCNCc1ccc(-c2ccc3ncnc(Nc4ccc(OCc5cccc(F)c5)c(Cl)c4)c3c2)o1 [lapatinib]
- viability at 0.001 µM (SkBr3-TxR cells; Lapatinib 0.001 μM, 72 h, no LGT-E pre-treatment (control to Table 34)): 100%
- viability at 0.001 µM (SkBr3-TxR cells; Lapatinib 0.001 μM, 72 h, pre-treated with […] LGT-E): 100%
- viability at 0.001 µM (SkBr3-TxR cells; Lapatinib 0.001 μM, no chemosensitizing pre-treatment (Table 33)): 100%
- viability at 0.02 µM (SkBr3-TxR cells; Lapatinib 0.02 μM, 72 h, no LGT-E pre-treatment (control to Table 34)): 99.2%
- viability at 0.02 µM (SkBr3-TxR cells; Lapatinib 0.02 μM, 72 h, pre-treated with […] LGT-E): 97.2%
- viability at 0.02 µM (SkBr3-TxR cells; Lapatinib 0.02 μM, no chemosensitizing pre-treatment (Table 33)): 103%
- viability at 0.067 µM (SkBr3-TxR cells; 72 h, no LGT-E pre-treatment (control to Table 34)): 96.2%
- viability at 0.067 µM (SkBr3-TxR cells; 72 h, pre-treated with […] LGT-E): 92.6%
- viability at 0.067 µM (SkBr3-TxR cells; no chemosensitizing pre-treatment (Table 33)): 102%
- viability at 0.2 µM (SkBr3-TxR cells; Lapatinib 0.2 μM, 72 h, no LGT-E pre-treatment (control to Table 34)): 93.1%
- viability at 0.2 µM (SkBr3-TxR cells; Lapatinib 0.2 μM, 72 h, pre-treated with […] LGT-E): 90.3%
- viability at 0.2 µM (SkBr3-TxR cells; Lapatinib 0.2 μM, no chemosensitizing pre-treatment (Table 33)): 97.2%
- viability at 0.67 µM (SkBr3-TxR cells; Lapatinib 0.67 μM, 72 h, no LGT-E pre-treatment (control to Table 34)): 88.8%
- viability at 0.67 µM (SkBr3-TxR cells; Lapatinib 0.67 μM, 72 h, pre-treated with […] LGT-E): 75.9%
- viability at 0.67 µM (SkBr3-TxR cells; Lapatinib 0.67 μM, no chemosensitizing pre-treatment (Table 33)): 91.8%
- viability at 2 µM (SkBr3-TxR cells; Lapatinib 2 μM, 72 h, no LGT-E pre-treatment (control to Table 34)): 70.4%
- viability at 2 µM (SkBr3-TxR cells; Lapatinib 2 μM, 72 h, pre-treated with […] LGT-E): 60.9%
- viability at 2 µM (SkBr3-TxR cells; Lapatinib 2 μM, no chemosensitizing pre-treatment (Table 33)): 77.2%
- viability at 6.7 µM (SkBr3-TxR cells; Lapatinib 6.7 μM, 72 h, no LGT-E pre-treatment (control to Table 34)): 47.7%
- viability at 6.7 µM (SkBr3-TxR cells; Lapatinib 6.7 μM, 72 h, pre-treated with […] LGT-E): 34.9%
- viability at 6.7 µM (SkBr3-TxR cells; Lapatinib 6.7 μM, no chemosensitizing pre-treatment (Table 33)): 46.4%
- viability at 20 µM (SkBr3-TxR cells; Lapatinib 20 μM, 72 h, no LGT-E pre-treatment (control to Table 34)): 25.4%
- viability at 20 µM (SkBr3-TxR cells; Lapatinib 20 μM, 72 h, pre-treated with […] LGT-E): 18.3%
- viability at 20 µM (SkBr3-TxR cells; Lapatinib 20 μM, no chemosensitizing pre-treatment (Table 33)): 26.4%
- IC50 (SkBr3-TxR cells; read-out: IC50 of drug when cells pre-treated with Chemosensitizing Agent before drug treatment): 3.92 µM and 2.28 µg/mL
- IC50 (SkBr3-TxR cells; read-out: IC50 of drug when cells treated with drug only): 6.2 µM and 3.6 µg/mL
- mean A at 565 nm (SkBr3-TxR cells; Lapatinib 0.001 μM, 72 h, no LGT-E pre-treatment (control to Table 34), background = 0.044): 2.294
- mean A at 565 nm (SkBr3-TxR cells; Lapatinib 0.001 μM, no chemosensitizing pre-treatment (Table 33), background = 0.047): 2.298
- mean A at 565 nm (SkBr3-TxR cells; Lapatinib 0.02 μM, 72 h, no LGT-E pre-treatment (control to Table 34), background = 0.044): 2.276
- mean A at 565 nm (SkBr3-TxR cells; Lapatinib 0.02 μM, 72 h, pre-treated with […] LGT-E, background = 0.044): 2.151
- mean A at 565 nm (SkBr3-TxR cells; Lapatinib 0.02 μM, no chemosensitizing pre-treatment (Table 33), background = 0.047): 2.357
- mean A at 565 nm (SkBr3-TxR cells; Lapatinib 0.2 μM, 72 h, pre-treated with […] LGT-E, background = 0.044): 1.999
- mean A at 565 nm (SkBr3-TxR cells; Lapatinib 0.2 μM, no chemosensitizing pre-treatment (Table 33), background = 0.047): 2.234
- mean A at 565 nm (SkBr3-TxR cells; Lapatinib 0.67 μM, 72 h, no LGT-E pre-treatment (control to Table 34), background = 0.044): 2.038
- mean A at 565 nm (SkBr3-TxR cells; Lapatinib 2 μM, 72 h, no LGT-E pre-treatment (control to Table 34), background = 0.044): 1.614
- mean A at 565 nm (SkBr3-TxR cells; Lapatinib 2 μM, 72 h, pre-treated with […] LGT-E, background = 0.044): 1.348
- mean A at 565 nm (SkBr3-TxR cells; Lapatinib 2 μM, no chemosensitizing pre-treatment (Table 33), background = 0.047): 1.775
- mean A at 565 nm (SkBr3-TxR cells; Lapatinib 6.7 μM, 72 h, no LGT-E pre-treatment (control to Table 34), background = 0.044): 1.095
- mean A at 565 nm (SkBr3-TxR cells; Lapatinib 6.7 μM, 72 h, pre-treated with […] LGT-E, background = 0.044): 0.772
- mean A at 565 nm (SkBr3-TxR cells; Lapatinib 6.7 μM, no chemosensitizing pre-treatment (Table 33), background = 0.047): 1.066
- mean A at 565 nm (SkBr3-TxR cells; Lapatinib 20 μM, 72 h, no LGT-E pre-treatment (control to Table 34), background = 0.044): 0.584
- mean A at 565 nm (SkBr3-TxR cells; Lapatinib 20 μM, 72 h, pre-treated with […] LGT-E, background = 0.044): 0.406
- mean A at 565 nm (SkBr3-TxR cells; Lapatinib 20 μM, no chemosensitizing pre-treatment (Table 33), background = 0.047): 0.607
- viability at 0.001 µM (BT474-TxR cells; [1]): 100%
- viability at 0.001 µM (BT474-TxR cells; [2]): 100%
- viability at 0.001 µM (BT474-TxR cells; [3]): 100%
- viability at 0.001 µM (BT474-TxR cells; pre-treated with […] LGT-E): 100%
- viability at 0.02 µM (BT474-TxR cells; [1]): 97.3%
- viability at 0.02 µM (BT474-TxR cells; [2]): 82.6%
- viability at 0.02 µM (BT474-TxR cells; [3]): 85.8%
- viability at 0.02 µM (BT474-TxR cells; pre-treated with […] LGT-E): 94%
- viability at 0.067 µM (BT474-TxR cells; [1]): 97.6%
- viability at 0.067 µM (BT474-TxR cells; [2]): 91.8%
- viability at 0.067 µM (BT474-TxR cells; [3]): 77.3%
